Source: PubChem BioAssay (NCI)
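How tested: cells in 96-well plates exposed to compound for 48 hours at five concentrations. Here, GI50 denotes the concentration required for 50% inhibition of growth. Definition used: TGI = concentration required for complete inhibition of growth.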

Assays:
Experiment in all cases: inhibition of tumour cell growth, NCI panel, 48 h
[1] = tested on: RPMI-8226 leukemia
[2] = tested on: CAKI-1 renal
[3] = tested on: U251 CNS
[4] = tested on: UACC-257 melanoma
[5] = tested on: UO-31 renal
[6] = tested on: SW-620 colon
[7] = tested on: CCRF-CEM leukemia
[8] = tested on: HOP-92 NSCLC
[9] = tested on: RXF 393 renal
[10] = tested on: SF-295 CNS

SMILES | TGI [1] [µM] | TGI [2] [µM] | TGI [3] [µM] | TGI [4] [µM] | TGI [5] [µM] | TGI [6] [µM] | TGI [7] [µM] | TGI [8] [µM] | TGI [9] [µM] | TGI [10] [µM] | GI50 [1] [µM] | GI50 [2] [µM] | GI50 [5] [µM] | GI50 [6] [µM] | GI50 [7] [µM] | GI50 [8] [µM] | GI50 [9] [µM] | GI50 [10] [µM] | GI50 [3] [µM] | GI50 [4] [µM]
COc1cc2c(cc1OC)C(C(c1ccccc1)c1ccccc1)N(C)CC2 (stereo unspecified) | > 100 | > 100 | > 100 | > 86.9 | > 100 | > 100 | > 100 | > 70.8 | 60.2 | > 100 |  |  |  |  |  |  |  |  |  | 
O=C1CCC(c2ccccc2)=NN1c1nsc2ccccc12 | > 100 |  | > 100 | > 100 | > 100 | > 100 | > 100 | > 100 | > 100 |  |  |  |  |  |  |  |  |  |  | 
COc1cnc2c(c1)C(=O)c1c-2n(CCCN2CCOCC2)c(=O)c2cc(Cl)ccc12 | > 100 | > 100 |  |  | > 100 | > 100 | > 100 | > 100 | 28 | 0.664 | 0.426 | 0.342 | 0.349 | 0.232 | 0.12 | 32.7 | 0.332 | 0.239 |  | 
O=c1oc2cc(O)ccc2c(O)c1C(c1ccccc1)c1c(O)c2ccc(O)cc2oc1=O |  | > 100 | > 100 | > 100 | > 100 | > 100 | > 100 | > 100 | > 100 | > 100 |  |  |  |  |  |  |  |  |  | 
C[n+]1c(/C=C/c2c(O)ccc3ccccc23)ccc2ccccc21 | 10.1 | 12.3 | 13.8 | 14.9 | 12 | 16.1 | 17.3 | 6.17 | 10.7 | 13.5 | 1.73 | 5.39 | 1.68 | 6.06 | 2.38 | 0.854 | 4.54 | 5.82 | 5.43 | 7.17
COc1cccc(N2C(Cl)C(=O)C2c2c[nH]c3ccccc23)c1 (stereo unspecified) | > 100 |  | > 100 | > 100 | > 100 | > 100 | > 100 | > 100 | > 100 | > 100 |  |  |  |  |  |  |  |  |  | 
C[N+](C)([O-])CCOc1cc2c(c3ccccc13)-c1ccccc1C2=O | 44.1 | 61.9 | 25.8 | 16.9 | 40 | 86.3 | > 83.7 | > 68.5 | 33.2 | > 72.1 |  |  |  |  |  |  |  |  |  | 
O=C1CC2(CCC(O)(c3ccc4ccccc4c3)C(C(=O)c3ccc4ccccc4c3)C2)C(=O)c2ccccc2N1 (stereo unspecified) |  | > 100 | > 100 | > 100 | > 100 | > 100 | > 100 | > 100 | > 100 | > 100 |  |  |  |  |  |  |  |  |  | 
